Assay results as given in patent publication US10889611B2, “Sialyltransferase inhibitors and uses thereof” (Academia Sinica, priority 2015, dated 2021).
Values joined by “and” are separate entries in the source; they are usually repeats but may differ in a detail not shown here. Identical values can stand only once.

Tests used:
[1] = target: T1, α2,3(O)-sialyltransferase ST3GALI (Rattus norvegicus, UniProt Q6H8N0); assay: Sialyltransferase inhibition assay, ST3GALI (reverse-phase HPLC); assay type: biochemical; conditions: read-out: ST3GALI inhibition percentage; for inhibition at 500 µM: measured at 500 μM
T1 construct: purchased Calbiochem
T1 sequence (Q6H8N0 1-340): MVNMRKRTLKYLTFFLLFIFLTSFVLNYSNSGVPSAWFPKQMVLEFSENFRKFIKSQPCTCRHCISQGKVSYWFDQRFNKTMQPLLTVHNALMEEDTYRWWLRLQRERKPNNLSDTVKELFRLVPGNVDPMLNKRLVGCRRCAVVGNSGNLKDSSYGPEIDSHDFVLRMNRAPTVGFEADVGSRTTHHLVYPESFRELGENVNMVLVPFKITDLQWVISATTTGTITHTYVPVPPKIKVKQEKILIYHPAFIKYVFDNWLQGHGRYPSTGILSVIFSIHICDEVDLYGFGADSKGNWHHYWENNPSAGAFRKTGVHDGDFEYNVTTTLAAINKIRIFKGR
Method: (§1) The enzymes analyzed in the present study included rat ST3Gal(I), rat ST3Gal(III), and human ST6Gal(I). Rat ST3Gal(I) and rat ST3Gal(Ill), were purchased from Calbiochem®, while human ST6Gal(I) was purchased from RnDSystems.com.
(§2) Sialyltransferase inhibition assay […] was performed as follows: Sialyltransferase activity was determined by measuring the level of the end product of sialylated saccharides with reverse-phase HPLC. The assay mixtures contained the following components: 200 mM MES buffer; 100 mM NaCl; 0.5 mM EDTA; 0.01% Triton X-100; 1.4 mU ST3GALI; 2.5 mM T-antigen; 1 mM CMP-Neu5Ac and different concentration of Sialyltransferase inhibitors to a total volume of 50 μl. The assay mixture was incubated at 37° C. for 15 mins and then quenched by heating up to 101′C for 10 mins. The sialylated product was resolved by reversed-phase HPLC. Kinetic data were obtained by fitting the initial rate data to the nonlinear regression equation.
(§3) Effects of the present compounds on the activity of sialyltransferase, including α2,3(N)-sialyltransferase ST3GALIII, α2,6(N)-sialyltransferases ST6GALI, and α2,3(O)-sialyltransferase ST3GALI, were determined in accordance with procedures described in the “Materials and Methods” section, and results are summarized in Table 1.

[2] = target: T2, α2,6(N)-sialyltransferases ST6GALI (Homo sapiens, UniProt P15907); assay: Sialyltransferase inhibition assay, ST6GALI (reverse-phase HPLC); assay type: biochemical; conditions: for IC50: IC50 (μM) ST6GALI, α2,6-N-link
T2 construct: purchased RnDSystems.com (R&D Systems)
T2 sequence (P15907 1-406): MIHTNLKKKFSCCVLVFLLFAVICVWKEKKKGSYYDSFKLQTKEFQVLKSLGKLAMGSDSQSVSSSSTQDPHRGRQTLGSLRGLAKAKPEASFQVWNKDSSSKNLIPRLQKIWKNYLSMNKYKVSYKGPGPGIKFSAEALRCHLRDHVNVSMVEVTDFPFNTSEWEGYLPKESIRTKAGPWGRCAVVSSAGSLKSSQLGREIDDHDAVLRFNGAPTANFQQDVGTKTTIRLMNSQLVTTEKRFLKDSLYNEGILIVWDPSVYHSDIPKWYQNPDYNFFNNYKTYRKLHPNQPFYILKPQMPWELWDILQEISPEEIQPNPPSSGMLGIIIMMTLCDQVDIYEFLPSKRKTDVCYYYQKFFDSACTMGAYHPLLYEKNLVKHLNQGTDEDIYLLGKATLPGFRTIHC
Method: as §1
as §2, with “mU ST6GALI; 25 μM Galβ1-4GlcNAc;” for “mU ST3GALI; 2.5 mM T-antigen;”, “to 101° C.” for “to 101′C”, “product is” for “product was”, “resolved with” for “resolved by”
as §3

[3] = target: T3, α2,3(N)-sialyltransferase ST3GALIII (Rattus norvegicus, UniProt Q02734); assay: Sialyltransferase activity assay, ST3GALIII; assay type: biochemical; conditions: IC50 (μM) ST3GALIII, α2,3-N-link
T3 construct: purchased Calbiochem
T3 sequence (Q02734 1-374): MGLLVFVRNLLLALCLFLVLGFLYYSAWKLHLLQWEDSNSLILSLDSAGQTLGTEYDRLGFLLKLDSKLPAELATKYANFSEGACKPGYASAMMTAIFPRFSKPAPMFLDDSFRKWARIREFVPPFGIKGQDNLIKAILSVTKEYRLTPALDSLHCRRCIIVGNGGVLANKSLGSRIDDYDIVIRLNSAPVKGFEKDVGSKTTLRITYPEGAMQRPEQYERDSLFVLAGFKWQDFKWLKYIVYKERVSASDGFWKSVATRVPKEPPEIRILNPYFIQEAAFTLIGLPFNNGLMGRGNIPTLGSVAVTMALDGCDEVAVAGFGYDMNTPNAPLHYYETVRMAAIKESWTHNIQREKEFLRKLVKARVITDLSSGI

C[C@H](CCC(=O)OCCN=[N+]=[N-])C1CC[C@H]2[C@@H]3CC[C@@H]4C[C@H](OC(=O)[C@H](CC(=O)O)Nc5ccc([N+](=O)[O-])c6nonc56)CC[C@]4(C)[C@H]3CC[C@]12C (stereo partly drawn) [Compound 1, (3S)-4-(((3R,5R,8R,9S,10S,13R,14S)-17-((R)-5-(2-azidoethoxy)-5-oxopentan-2-yl)-10,13-dimethylhexadecahydro-1H-cyclopenta[a]phenanthren-3-yl)oxy)-3-((7-nitrobenzo[c][1,2,5]oxadiazol-4-yl)amino)-4-oxobutanoic acid]
inhibition at 500 µM [1]: 0%
inhibition at 1000 µM ([1]; measured at 1 mM): 74%
melting point: 78 to 79 °C
IC50 [2]: 4.2 µM and 4.33 µM
IC50 [3]: 0.8 µM and 0.77 µM

C[C@H](CCC(=O)OCCOCCN=[N+]=[N-])C1CC[C@H]2[C@@H]3CC[C@@H]4C[C@H](OC(=O)[C@H](CC(=O)O)NC(=O)c5ccc([N+](=O)[O-])cc5)CC[C@]4(C)[C@H]3CC[C@]12C (stereo partly drawn) [Compound 7, (3S)-4-(((3R,5R,8R,9S,10S,13R,14S)-17-((R)-5-(2-(2-azidoethoxy)ethoxy)-5-oxopentan-2-yl)-10,13-dimethylhexadecahydro-1H-cyclopenta[a]phenanthren-3-yl)oxy)-3-(4-nitrobenzamido)-4-oxobutanoic acid]
inhibition at 500 µM [1]: 0%
melting point: 57 to 58 °C
selectivity ratio ST3GALI/ST6GALI [2]: >74
IC50 [2]: 6.72 ± 0.3 µM

C[C@H](CCC(=O)OCCOCCOCCN=[N+]=[N-])C1CC[C@H]2[C@@H]3CC[C@@H]4C[C@H](OC(=O)[C@H](CC(=O)O)NC(=O)c5ccc([N+](=O)[O-])cc5)CC[C@]4(C)[C@H]3CC[C@]12C (stereo partly drawn) [Compound 8, (3S)-4-(((3R,5R,8R,9S,10S,13R,14S)-17-((R)-5-(2-(2-(2-azidoethoxy)ethoxy)ethoxy)-5-oxopentan-2-yl)-10,13-dimethylhexadecahydro-1H-cyclopenta[a]phenanthren-3-yl)oxy)-3-(4-nitrobenzamido)-4-oxobutanoic acid]
inhibition at 500 µM [1]: 0%
melting point: 52 to 53 °C
selectivity ratio ST3GALI/ST6GALI [2]: >94
IC50 [2]: 5.35 ± 0.46 µM

COc1ccc2c(CC(=O)N[C@@H](CC(=O)O)C(=O)O[C@@H]3CC[C@@]4(C)[C@H](CC[C@@H]5[C@@H]4CC[C@]4(C)C([C@H](C)CCC(=O)OCCN=[N+]=[N-])CC[C@@H]54)C3)cc(=O)oc2c1 (stereo partly drawn) [Compound 11, (3S)-4-(((3R,5R,8R,9S,10 S,13R,14S)-17-((R)-5-(2-azidoethoxy)-5-oxopentan-2-yl)-10,13-dimethylhexadecahydro-1H-cyclopenta[a]phenanthren-3-yl)oxy)-3-(2-(7-methoxy-2-oxo-2H-chromen-4-yl)acetamido)-4-oxobutanoic acid]
inhibition at 500 µM [1]: 0%
melting point: 151 to 152 °C
selectivity ratio ST3GALI/ST6GALI [2]: >89
IC50 [2]: 5.59 ± 0.24 µM

COc1ccc2c(CC(=O)N[C@@H](CC(=O)O)C(=O)O[C@@H]3CC[C@@]4(C)[C@H](CC[C@@H]5[C@@H]4CC[C@]4(C)C([C@H](C)CCC(=O)OCCOCCN=[N+]=[N-])CC[C@@H]54)C3)cc(=O)oc2c1 (stereo partly drawn) [Compound 12, (3S)-4-(((3R,5R,8R,9S,10S,13R,14S)-17-((R)-5-(2-(2-azidoethoxy)ethoxy)-5-oxopentan-2-yl)-10,13-dimethylhexadecahydro-1H-cyclopenta[a]phenanthren-3-yl)oxy)-3-(2-(7-methoxy-2-oxo-2H-chromen-4-yl)acetamido)-4-oxobutanoic acid]
inhibition at 500 µM [1]: 0%
melting point: 142 to 143 °C
selectivity ratio ST3GALI/ST6GALI [2]: >97
IC50 [2]: 5.14 ± 0.11 µM

COc1ccc2c(CC(=O)N[C@@H](CC(=O)O)C(=O)O[C@@H]3CC[C@@]4(C)[C@H](CC[C@@H]5[C@@H]4CC[C@]4(C)C([C@H](C)CCC(=O)OCCOCCOCCN=[N+]=[N-])CC[C@@H]54)C3)cc(=O)oc2c1 (stereo partly drawn) [Compound 13, (3S)-4-(((3R,5R,8R,9S,10S,10S,3R,14S)-17-((R)-5-(2-(2-(2-azidoethoxy)ethoxy)ethoxy)-5-oxopentan-2-yl)-10,13-dimethylhexadecahydro-1H-cyclopenta[a]phenanthren-3-yl)oxy)-3-(2-(7-methoxy-2-oxo-2H-chromen-4-yl)acetamido)-4-oxo butanoic acid]
inhibition at 500 µM [1]: 0%
melting point: 134 to 135 °C
selectivity ratio ST3GALI/ST6GALI [2]: >109
IC50 [2]: 4.61 ± 0.35 µM

COc1ccc2c(CC(=O)N[C@@H](CC(=O)O)C(=O)O[C@@H]3CC[C@@]4(C)[C@H](CC[C@@H]5[C@@H]4CC[C@]4(C)C([C@H](C)CCC(=O)OCCOCCOCCOCCN=[N+]=[N-])CC[C@@H]54)C3)cc(=O)oc2c1 (stereo partly drawn) [Compound 14, (3S)-4-(((3R,5R,8R,9S,10S,13R,14S)-17-((R)-1-azido-13-oxo-3,6,9,12-tetraoxaheptadecan-16-yl)-10,13-dimethylhexadecahydro-1H-cyclopenta[a]phenanthren-3-yl)oxy)-3-(2-(7-methoxy-2-oxo-2H-chromen-4-yl)acetamido)-4-oxobutanoic acid]
inhibition at 500 µM [1]: 0%
melting point: 126 to 127 °C
selectivity ratio ST3GALI/ST6GALI [2]: >101
IC50 [2]: 4.95 ± 0.37 µM

COc1ccc2c(CC(=O)N[C@@H](CC(=O)O)C(=O)O[C@@H]3CC[C@@]4(C)[C@H](CC[C@@H]5[C@@H]4CC[C@]4(C)C([C@H](C)CCC(=O)OCCOCCOCCOCCOCCN=[N+]=[N-])CC[C@@H]54)C3)cc(=O)oc2c1 (stereo partly drawn) [Compound 15, (3S)-4-(((3R,5R,8R,9S,10S,13R,14S)-17-((R)-1-azido-16-oxo-3,6,9,12,15-pentaoxaicosan-19-yl)-10,13-dimethylhexadecahydro-1H-cyclopenta[a]phenanthren-3-yl)oxy)-3-(2-(7-methoxy-2-oxo-2H-chromen-4-yl)acetamido)-4-oxobutanoic acid]
inhibition at 500 µM [1]: 0%
melting point: 113 to 114 °C
selectivity ratio ST3GALI/ST6GALI [2]: >88
IC50 [2]: 5.69 ± 0.4 µM
